6 molecules from patent US8372973B2, “Prokineticin 1 receptor antagonists” (Janssen Pharmaceutica N.V., priority 2005, dated 2013) can be followed below.

Several values for one entry are separate records, joined by “and”; a condition that tells them apart may be missing. Equal entries are not always repeated. Entries after “also recorded” stand apart in the source; their conditions may differ. Where two headings read alike, the source gives them in different places. Where only a bound is given, the exact number is not on record here.

Assay [1] concerns pro-secretory effect of carbachol. As to the kind of experiment: Selectivity test against carbachol-evoked secretion in rat ileum mucosa, Ussing-type chambers.
A further assay has as its target T1, PK1 receptor (Rattus norvegicus, UniProt Q8R416).
T1 construct: The PK1 evoked increase in Isc requires the presence of endogenous PK1 receptors; from tissue; host or cells: isolated rat ileum mucosa
As to the kind of experiment: Suppression of PK1-evoked increase in Isc in isolated rat ileum mucosa, Ussing-type chambers. Particulars: 1 μM test compound, 15 min; PK1 10 and 100 nM cumulative. As to the method:
Methodology. The basic methodology for Ussing-type ion flux chambers used in these studies was the same as that described in detail above with the following modifications to the experimental protocol. […] The responses to two sequential EFS were used to gauge tissue viability and comparability of the responses of individual tissues from each rat and between rats. Tissue conductance was measured at periodic intervals as changes in the amplitudes of brief short-circuit current responses evoked by application of 1 mV amplitude bi-polar pulses from a pulse generator using Ohm's Law. Three to four tissues from each rat were studied. The tissues from a given animal were grouped and assigned accordingly: one control tissue which received only vehicle followed by two consecutive doses of PK-1 ligand added in a cumulative fashion to the basolateral surface of the tissue; the remaining two to three tissues from the same animal were assigned to be exposed to a given PK-1 receptor antagonist (e.g., 3-4 tissues from 1 rat: Control, Antagonist1, Antagonist2, and/or Antagonist3). Test compound was added to the basolateral tissue side reservoir at a final concentration of 1 μM and allowed a 15 minute incubation period prior to challenge with the PK1 peptide. […]

In assay [2] the test system is Cholera toxin stimulated gut secretion. The arrangement: species or system rat.
The target in assay [3] is T2, GPR73 (prokineticin 1 receptor) (Homo sapiens, UniProt Q8TCW9).
T2 construct: expressed in transfected cells; host or cells: HEK 293
As to the kind of experiment: PK1 functional assay: Ca2+ mobilization on the FLIPR. The format is cell-based. Particulars: for inhibition at 10 µM: read-out: Ca^2+ Mobilization % Inh @10 μM; for IC50: HEK 293 GPR73 expressing cells, PK1 ligand preparation at its EC50, read-out: Ca^2+ Mobilization IC50. As to the method:
At a time of 24 h prior to running the assay, in cell culture media (DMEM containing high Glucose and L-glutamine, 10% FBS, 1% Pen/Streptomycin, 1% Sodium Pyruvate, 20 mM HEPES, Zeocin 200 mg/L), […] of 1.3*10^6/ml HEK 293 GPR73 (prokineticin 1 receptor) expressing cells were plated in a 96 well poly-d-lysine coated plate (Costar), and incubated at 37° C. and 5% CO2. On the day in which the assay was run, the media was removed and […] of 5× Calcium Plus Dye (Molecular Devices) which was previously resuspended with 200 mL of assay buffer [HBSS w/Ca^2+ and Mg^2+ w/o phenol red, 20 mM HEPES, 0.1% BSA, 10 mL probenecid (710 mg probenecid in 5 mL of 1N NaOH, to which was then added 5 mL HBSS containing 20 mM HEPES)] was added to each well of the 96-well plate. The plate was incubated at 37° C. and 5% CO2 for 30 min in dark. The plate was removed and allowed to reach RT for 15 min in the dark. The assay was then run on the FLIPR. In Brief: base line read for 1 min, compound added (25 μL) and incubated for 4 min, 15 seconds, PK1 ligand preparation added (25 μL) for a final concentration of a previously determined EC50 and fluorescence was counted for 1 min, 45 seconds. Baseline is described as the amount of relative fluorescence read when buffer alone is added to cells. Baseline was subtracted from all wells. Percent of control was calculated as follows:
(Baseline subtracted well value is divided by baseline subtracted max value)*100. Percent inhibition is 100 minus the percent of control value.
The IC50 is defined as the amount of a given compound required to inhibit 50% of the maximum signal that is generated by the concentration of PK1 preparation used in our assay. IC50 values were calculated using GraphPad Prism.
(Calcium flux is commonly read through the fluorescence of an indicator in the cells.)

The test system of assay [4] is ileum mucosal tissues from PK1 receptor knock-out mice. As to the kind of experiment: PK1 effect on Isc in ileum mucosal tissues from PK1 receptor knock-out mice. Particulars: exogenous PK1 peptide.

T2 sequence (Q8TCW9 whole entry, species assumed): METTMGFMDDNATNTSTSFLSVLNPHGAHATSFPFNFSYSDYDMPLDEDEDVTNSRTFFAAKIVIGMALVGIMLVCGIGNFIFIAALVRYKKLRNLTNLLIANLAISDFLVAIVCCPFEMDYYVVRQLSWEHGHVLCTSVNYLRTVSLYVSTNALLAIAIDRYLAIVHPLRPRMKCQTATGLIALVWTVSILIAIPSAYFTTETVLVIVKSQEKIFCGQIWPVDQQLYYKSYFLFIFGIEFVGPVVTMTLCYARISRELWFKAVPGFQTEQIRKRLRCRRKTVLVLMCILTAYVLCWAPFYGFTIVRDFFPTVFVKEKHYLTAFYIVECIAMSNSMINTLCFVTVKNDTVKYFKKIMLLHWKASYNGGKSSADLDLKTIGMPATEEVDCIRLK
T1 sequence (Q8R416 whole entry): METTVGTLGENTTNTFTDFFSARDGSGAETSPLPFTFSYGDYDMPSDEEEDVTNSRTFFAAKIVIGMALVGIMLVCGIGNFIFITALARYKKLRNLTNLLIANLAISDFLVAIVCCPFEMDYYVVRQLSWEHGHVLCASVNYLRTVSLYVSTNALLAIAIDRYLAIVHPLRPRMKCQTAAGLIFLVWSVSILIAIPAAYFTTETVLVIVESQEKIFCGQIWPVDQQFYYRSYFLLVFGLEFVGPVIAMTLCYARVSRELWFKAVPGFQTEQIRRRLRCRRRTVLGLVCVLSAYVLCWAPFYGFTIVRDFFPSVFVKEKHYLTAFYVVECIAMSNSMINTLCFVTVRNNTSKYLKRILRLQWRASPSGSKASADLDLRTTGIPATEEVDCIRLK

As for `COc1ccc(Cn2c(NCc3cccnc3N)nc(=O)n(Cc3ccc(OC)cc3)c2=O)cc1` [Cpd 3, 6-[(2-Amino-pyridin-3-ylmethyl)-amino]-1,3-bis-(4-methoxy-benzyl)-1H-[1,3,5]triazine-2,4-dione], the “suppression of the pro-secretory effect of carbachol (unrelated secretagogue)” value in assay [1] is reported as “without inhibiting”; in assay [1] (two ascending cumulative carbachol concentrations, serosal side) it was “without inhibiting; also recorded: failed to suppress”. The “suppression of the PK1 evoked increase in Isc” value on PK1 receptor is listed as “suppresses; also recorded: significant surmountable antagonism”. For the same molecule, the “suppression of Cholera toxin-evoked stimulation of gut secretion (in words)” value in assay [2] is “suppresses”. For the same molecule, the “suppression of the sustained increase in baseline Isc evoked by Cholera toxin” value in assay [2] was 50-60%.

For `COc1ccc(Cn2c(NCc3cccnc3)nc(=O)n(Cc3ccc(OC)cc3)c2=O)cc1` [Cpd 40], the inhibition at 10 µM in assay [3] (@10 μM compound) turned out to be 83%. Besides, in assay [3], the concentration for half-maximal inhibition (IC50) (in general, the concentration that inhibits the measured activity by half) came out at 557 nM.

Consider `COc1ccc(Cn2c(=O)nc(NCc3cnc(C)cc3C)n(Cc3ccc(OC(F)F)cc3)c2=O)cc1` [Cpd 96], for which the inhibition at 10 µM in assay [3] (@10 μM compound) was found to be 92%.

Consider `COc1ccc(Cn2c(=O)nc(NCc3cnc(C)cc3C)n(Cc3ccccc3OC)c2=O)cc1` [Cpd 106], for which the “Ca^2+ Mobilization % Inh @10 μM” value in assay [3] (@10 μM compound, 10 µM) came to 101%. In assay [3] (@10 μM compound), the inhibition at 10 µM is 99%. Also, the IC50 in assay [3] was 25 nM and 74 nM.

`COc1ccccc1Cn1c(=O)nc(NCc2cnc(C)cc2C)n(Cc2ccc(OC(F)F)cc2)c1=O` [Cpd 193]: the inhibition at 10 µM in assay [3] (@10 μM compound) is 39%. Further, the IC50 in assay [3] is greater than 10000 nM.

B1: PK1: Recombinant human prokineticin-1 from HEK 293 cells, FLAG epitope cleaved; mixture of full-length ligand and four C-terminal residue truncated product (protein)
chain: AVITGACERDVQCGAGTCCAISLWLRGLRMCTPLGREGEECHPGSHKVPFFRKRKHHTCPCLPNLLCSRFPDGRYRCSMDLKNINF
modifications: mixture with C-terminal truncated product; Recombinant N-terminal FLAG-tagged human prokineticin-1 after enterokinase cleavage of Flag-tag
With B1, the “change in Isc compared to wild-type littermates” value in assay [4] was “failed to elicit a significant change”.
